Source: US20130324522A1, “INSECT ODORANT RECEPTOR ANTAGONISTS” (THE ROCKEFELLER UNIVERSITY, priority 2010, published 2013)
Like-named read-outs stand apart in the source and are kept apart here.

How the values were obtained:
Format in all cases: cell-based
OR8/OR7 = OR8/OR7 (Anopheles gambiae, UniProt Q7PUT5+Q7QCC7); test: Ca2+-imaging of stable HEK293T cell line OR8/OR7; conditions: for inhibition at 4 µM: HEK-293T, read-out: Percent Inhibition OR8 OR7; for IC50: Table B, read-out: IC50 OR8
Experimental: (§1) Full-length cDNAs for mosquito (Anopheles gambiae) odorant receptor (OR1, OR2, OR7, OR8, OR28), and fly (Drosophila melanogaster) odorant receptor (Or47a, Or83b), mouse TRP channel (TRPM8), and mouse serotonin receptor (5HT3) were obtained and subcloned into mammalian expression vectors. The following mammalian expression vectors were used:
Stable cell lines OR1/OR7, OR2/OR7, OR8/OR7, OR10/OR7, OR28/OR7 and TRPM8 were generated from HEK293T cells. HEK293T-based cell lines were cultured in DMEM supplemented with these additional antibiotics: 6 μg/mL blasticidin and 1 μg/mL puromycin, with the exception of the TRPM8 cell lines, which was cultured in DMEM supplemented with 1 μg/mL puromycin.
Cells were trypsinized and split into 35 mm dishes one day before transfection. Confluent cells (60-70%) in 35 mm dishes were transfected with 1 μg of insect OR(X) plasmids in pME18s-bla and 1 μg of OR7-pME18s-puro using lipofectamine 2000. For Anopheles odorant receptors, two plasmids were co-transfected into HEK cells: the ligand-specific receptor (OR1, OR2, OR8, OR28) and the corresponding olfactory co-receptor: OR7. Cell lines containing TRPM8 were transfected with single plasmid.
(§2) Stable cell lines were cultured in 10 cm dishes, and confluent cells (70-80%) were trypsinized. 10,000 cells/20 μL were transferred into each well of 384-well plates coated with poly-D-lysine, and cultured for 2 days. For Flip-In T-Rex cells (cell lines expressing Or47a/Or83b and 5HT3), 5 μL of tetracycline (5 μg/mL) were added 1 day before the assay. 20 μL of Ca-4 dye was loaded into each well for 1.5 hr at room temperature in the dark, and the dye-loaded plates were subjected to Ca^2+-imaging using a Hamamatsu FDSS6000 real time fluorescence plate reader. Odorant solutions (9× final concentration) were prepared by dissolving 1M stock solutions into Hank's Buffered Salt Solution (HBSS), and 30 μL of odor solution was transferred to each well in 384-well plates.
(§3) Compounds ([…] in DMSO) were stored in 384-well plates, and last two columns (32 wells total) contained only DMSO. 200 nL of small compounds were transferred into the odorant plates before the assay using the Perkin-Elmer Janus workstation. The odorant plates were spun down to remove air bubbles, and placed on the FDSS6000 plate loader, and 5 μL of odorant solution was applied to the cell plate on the FDSS6000. Ca^2+ increase was monitored with fluorescence at 525 nm by excitation at 485 nm.

[1] = target: T1, serotonin receptor (5HT3) (Mus musculus, UniProt P23979); test: Ca2+-imaging of stable Flip-In T-Rex cell line 5HT3; conditions: for inhibition at 4 µM: read-out: Percent Inhibition 5HT3
T1 construct: Full-length cDNAs for mosquito (Anopheles gambiae) odorant receptor; expressed in transfected cells
T1 sequence (P23979 24-489): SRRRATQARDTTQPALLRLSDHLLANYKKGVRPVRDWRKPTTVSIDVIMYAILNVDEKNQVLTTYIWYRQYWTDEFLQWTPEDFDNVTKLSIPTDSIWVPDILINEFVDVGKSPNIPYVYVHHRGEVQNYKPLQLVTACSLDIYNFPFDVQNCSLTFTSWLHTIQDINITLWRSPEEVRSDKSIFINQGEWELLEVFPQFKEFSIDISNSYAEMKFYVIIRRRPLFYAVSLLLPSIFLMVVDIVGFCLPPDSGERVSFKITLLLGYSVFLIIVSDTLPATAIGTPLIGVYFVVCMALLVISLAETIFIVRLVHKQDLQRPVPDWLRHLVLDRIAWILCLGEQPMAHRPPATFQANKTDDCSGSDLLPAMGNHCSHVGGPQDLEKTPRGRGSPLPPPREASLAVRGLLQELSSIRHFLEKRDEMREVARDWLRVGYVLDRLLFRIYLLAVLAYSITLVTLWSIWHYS
Experimental: as §1
Stable cell lines Or47a/Or83b and 5HT3 were generated from Flip-In T-Rex cells. Flip-In T-Rex-based cell lines were cultured in DMEM supplemented with these additional antibiotics: 6 μg/mL blasticidin and 100 μg/mL hygromycin.
Cells were trypsinized and split into 35 mm dishes 1 day before transfection. Confluent cells (60-70%) in 35 mm dishes were co-transfected with 1 μg of Or47a/Or83b plasmid in pcDNA5/FRT/TO/IRES plus the pOG44 plasmid or 1 μg of 5HT3 plasmid in pcDNA5/FRT/TO plus the pOG44 plasmid using lipofectamine 2000. Co-transfection of pOG44 and pcDNA5/FRT/TO/IRES or pcDNA5/FRT/TO allows expression of Flp recombinase and integration of the pcDNA5 plasmid into the genome via the FRT site. After one day of incubation, the transfected cells were transferred into 10 cm dishes with DMEM containing antibiotics: 20 μg/mL of hygromycin and 6 μg/mL of blasticidin. The concentration of Hygromycin was increased to 100 μg/mL when the population of cells became 30-40% confluent. The cells were cultured by changing medium every two days until cell clumps appeared. The clumps were picked and transferred into 96 well plates with DMEM containing 100 μg/mL of Hygromycin and 6 μg/mL of blasticidin. The cells were grown and transferred to 24 well plates, and ligand-evoked calcium increases were tested using the Hamamatsu FDSS6000 real time fluorescence plate reader.
as §2, §3

mOREG = target: T2, mOREG (Mus musculus, UniProt Q920P2); test: Ca2+-imaging, control receptor mOREG; conditions: read-out: Percent Inhibition mOREG
T2 sequence (Q920P2 1-313): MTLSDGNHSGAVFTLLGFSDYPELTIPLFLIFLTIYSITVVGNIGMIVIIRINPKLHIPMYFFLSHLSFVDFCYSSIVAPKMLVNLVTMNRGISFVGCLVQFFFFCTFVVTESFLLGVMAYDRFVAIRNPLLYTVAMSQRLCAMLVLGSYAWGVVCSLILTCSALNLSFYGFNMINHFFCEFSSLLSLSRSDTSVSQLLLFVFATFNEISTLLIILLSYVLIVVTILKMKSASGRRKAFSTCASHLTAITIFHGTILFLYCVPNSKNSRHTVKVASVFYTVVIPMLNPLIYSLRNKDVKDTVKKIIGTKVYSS
Experimental: as §2, with “plates. The last two columns of the plate (32 wells total) were used as control wells as follows: • negative control with HBSS buffer (16 wells) • positive control with ligands (16 wells).” for “plates.”
as §3

Chain of OR8/OR7 (Q7QCC7 whole entry): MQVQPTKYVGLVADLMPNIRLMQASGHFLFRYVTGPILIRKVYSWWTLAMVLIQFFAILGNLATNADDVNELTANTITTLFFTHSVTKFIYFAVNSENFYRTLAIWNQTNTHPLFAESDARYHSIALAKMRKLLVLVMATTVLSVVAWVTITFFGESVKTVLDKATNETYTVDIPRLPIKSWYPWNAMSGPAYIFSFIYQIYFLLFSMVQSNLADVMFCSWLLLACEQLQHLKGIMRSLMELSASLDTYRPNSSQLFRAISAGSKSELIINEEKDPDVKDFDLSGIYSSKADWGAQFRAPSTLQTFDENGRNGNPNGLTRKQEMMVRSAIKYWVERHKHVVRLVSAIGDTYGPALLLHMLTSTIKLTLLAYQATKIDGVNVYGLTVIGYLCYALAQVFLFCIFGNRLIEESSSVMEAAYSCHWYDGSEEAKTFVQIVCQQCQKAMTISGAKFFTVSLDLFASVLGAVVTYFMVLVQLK
Chain of OR8/OR7 (Q7PUT5 entry or part of it): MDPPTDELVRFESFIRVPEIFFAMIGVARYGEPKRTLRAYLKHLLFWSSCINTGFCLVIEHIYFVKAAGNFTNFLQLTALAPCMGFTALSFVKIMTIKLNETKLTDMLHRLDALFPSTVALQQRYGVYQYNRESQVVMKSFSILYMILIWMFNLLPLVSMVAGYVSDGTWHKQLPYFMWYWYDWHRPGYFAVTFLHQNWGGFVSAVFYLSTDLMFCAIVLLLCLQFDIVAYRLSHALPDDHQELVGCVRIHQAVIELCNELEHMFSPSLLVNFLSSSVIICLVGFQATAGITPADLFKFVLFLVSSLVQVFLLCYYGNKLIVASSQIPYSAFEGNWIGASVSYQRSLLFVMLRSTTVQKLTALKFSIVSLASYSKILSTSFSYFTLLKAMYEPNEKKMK

CC(=O)OCC(=O)NCC1Cc2cc(Oc3ccccc3)ccc2O1 (stereo not shown) [RU-0079120]
inhibition at 4 µM (OR8/OR7; compound applied at 4 μM): < 25% | inhibition at 4 µM ([1]; compound applied at 4 μM): 26 to 50% | inhibition at 4 µM (mOREG; compound applied at 4 μM): < 25%

CCc1cc(N2CCCC2)nc(SCc2ccc(C(=O)N3CCOCC3)o2)n1 [RU-0047568]
inhibition at 4 µM (OR8/OR7; compound applied at 4 μM): 26 to 50% | inhibition at 4 µM ([1]; compound applied at 4 μM): 26 to 50% | inhibition at 4 µM (mOREG; compound applied at 4 μM): 26 to 50%

Cc1cc(N(C)C2CCCCC2)nc(SCc2cccc(C(=O)N3CCCC3)c2)n1 [RU-0034108]
inhibition at 4 µM (OR8/OR7; compound applied at 4 μM): < 25% | inhibition at 4 µM ([1]; compound applied at 4 μM): < 25% | inhibition at 4 µM (mOREG; compound applied at 4 μM): < 25%

c1ccc(CNc2nc(NCc3ccco3)nc(N3CCOCC3)n2)cc1 [RU-0020050]
inhibition at 4 µM (OR8/OR7; compound applied at 4 μM): > 75% | IC50 (OR8/OR7): > 1000 nM | inhibition at 4 µM ([1]; compound applied at 4 μM): 26 to 50% | inhibition at 4 µM (mOREG; compound applied at 4 μM): 26 to 50%

O=C(c1c(F)c(F)cc(F)c1F)N1CCOC(Cc2ccccc2)C1 (stereo not shown) [RU-0050393]
inhibition at 4 µM (OR8/OR7; compound applied at 4 μM): 26 to 50% | inhibition at 4 µM ([1]; compound applied at 4 μM): 26 to 50% | inhibition at 4 µM (mOREG; compound applied at 4 μM): 26 to 50%

COc1ccccc1CCC(=O)N1CCC(CCC(=O)Nc2ccccc2)CC1 [RU-0032455]
inhibition at 4 µM (OR8/OR7; compound applied at 4 μM): 26 to 50% | inhibition at 4 µM ([1]; compound applied at 4 μM): 26 to 50% | inhibition at 4 µM (mOREG; compound applied at 4 μM): 26 to 50%

CCOC(=O)CCC(=O)N(CCc1ccccc1)CC(=O)Nc1cc(C(C)(C)C)nn1-c1ccccc1C [RU-0072462]
inhibition at 4 µM (OR8/OR7; compound applied at 4 μM): < 25% | inhibition at 4 µM ([1]; compound applied at 4 μM): < 25% | inhibition at 4 µM (mOREG; compound applied at 4 μM): < 25%

CCOC(=O)C1CCCN(C(=O)c2csc(CSc3nnc(-c4cccc(OC)c4)n3-c3ccc(C)cc3)n2)C1 (stereo not shown) [RU-0071628]
inhibition at 4 µM (OR8/OR7; compound applied at 4 μM): 26 to 50% | inhibition at 4 µM ([1]; compound applied at 4 μM): 26 to 50% | inhibition at 4 µM (mOREG; compound applied at 4 μM): 26 to 50%

COc1ccccc1C(=O)C1CCCN(C(=O)c2cccc(N3CCOCC3)c2)C1 (stereo not shown) [RU-0029350]
inhibition at 4 µM (OR8/OR7; compound applied at 4 μM): 26 to 50% | IC50 (OR8/OR7): > 1000 nM | inhibition at 4 µM ([1]; compound applied at 4 μM): < 25% | inhibition at 4 µM (mOREG; compound applied at 4 μM): 26 to 50%

C=CCN(Cc1nccn1Cc1ccccc1F)C(=O)c1cccc(F)c1 [RU-0058232]
inhibition at 4 µM (OR8/OR7; compound applied at 4 μM): 26 to 50% | IC50 ([1]; Table B, read-out: IC50 5HT3): > 1000 nM | inhibition at 4 µM ([1]; compound applied at 4 μM): 51 to 74% | inhibition at 4 µM (mOREG; compound applied at 4 μM): 26 to 50%

C=CCN(Cc1nccn1Cc1ccc(Cl)c(Cl)c1)C(=O)c1ccccc1F [RU-0047955]
inhibition at 4 µM (OR8/OR7; compound applied at 4 μM): < 25% | inhibition at 4 µM ([1]; compound applied at 4 μM): < 25% | inhibition at 4 µM (mOREG; compound applied at 4 μM): < 25%

C=CCNC(=O)C(NC(=O)c1cccc(C)c1)C1CCN(C(=O)c2cccc(Br)c2)CC1 (stereo not shown) [RU-0039123]
inhibition at 4 µM (OR8/OR7; compound applied at 4 μM): 26 to 50% | inhibition at 4 µM ([1]; compound applied at 4 μM): 26 to 50% | inhibition at 4 µM (mOREG; compound applied at 4 μM): 26 to 50%

C=CCN(Cc1nccn1Cc1ccccc1C)C(=O)CC(C)C [RU-0058298]
inhibition at 4 µM (OR8/OR7; compound applied at 4 μM): < 25% | inhibition at 4 µM ([1]; compound applied at 4 μM): 26 to 50% | inhibition at 4 µM (mOREG; compound applied at 4 μM): 26 to 50%

Cc1ccccc1C(=O)N[C@@H]1CCCCC1NC(=O)C1CCN(C(=O)c2ccc(C(C)(C)C)cc2)CC1 (stereo partly shown) [RU-0045678]
inhibition at 4 µM (OR8/OR7; compound applied at 4 μM): 26 to 50% | inhibition at 4 µM ([1]; compound applied at 4 μM): 26 to 50% | inhibition at 4 µM (mOREG; compound applied at 4 μM): 26 to 50%

CCN(CC)C(=O)Oc1ccc2c(ccn2Cc2cccc(C)c2)c1NC(=O)CCCCC(=O)OC [RU-0075445]
inhibition at 4 µM (OR8/OR7): < 25% | inhibition at 4 µM [1]: < 25% | inhibition at 4 µM (mOREG): < 25%

COCCNC(=O)c1ccc(CSc2nnc(-c3ccc(C)cc3)n2-c2ccccc2C)cc1 [RU-0053556]
inhibition at 4 µM (OR8/OR7; compound applied at 4 μM): 26 to 50% | inhibition at 4 µM ([1]; compound applied at 4 μM): < 25% | inhibition at 4 µM (mOREG; compound applied at 4 μM): 26 to 50%

CCN(CC)c1onc(-c2ccc(F)cc2)c1CN(CCCOC)C(=O)c1ccc2c(c1)OCO2 [RU-0036983]
inhibition at 4 µM (OR8/OR7; compound applied at 4 μM): 51 to 74% | IC50 (OR8/OR7): > 1000 nM | inhibition at 4 µM ([1]; compound applied at 4 μM): 26 to 50% | inhibition at 4 µM (mOREG; compound applied at 4 μM): 26 to 50%

Cc1nn(-c2ccc(Cl)cc2)c(C)c1C(=O)NCc1ccccn1 [RU-0048608]
inhibition at 4 µM (OR8/OR7; compound applied at 4 μM): < 25% | inhibition at 4 µM ([1]; compound applied at 4 μM): < 25% | inhibition at 4 µM (mOREG; compound applied at 4 μM): < 25%

Fc1ccccc1/C=N/Nc1nc(N2CCCCC2)nc(N2CCOCC2)n1 [RU-0018338]
inhibition at 4 µM (OR8/OR7; compound applied at 4 μM): < 25% | inhibition at 4 µM ([1]; compound applied at 4 μM): 26 to 50% | inhibition at 4 µM (mOREG; compound applied at 4 μM): 26 to 50%

CCOC(=O)c1c(NC(C)=O)c(-c2ccc(OC)cc2)cn1Cc1ccccc1 [RU-0077733]
inhibition at 4 µM (OR8/OR7; compound applied at 4 μM): < 25% | inhibition at 4 µM ([1]; compound applied at 4 μM): < 25% | inhibition at 4 µM (mOREG; compound applied at 4 μM): < 25%
